The results in this text go back to ChEMBL document CHEMBL1128659, “Tetramic acids as novel glycine site antagonists” (Bioorg Med Chem Lett, 1995).

In data set [1] the target is Glutamate receptor ionotropic, NMDA 1 (Rattus norvegicus) (UniProt P35439). Nature of the data set: Inhibition of binding affinity of [3H]L-689,560 to the strychnine insensitive glycine site on rat brain membranes at a concentration of 100 uM. The format is cell membranes. To be noted: Membrane.
A short description of data set [2]: pKa value was measured. It is filed as physicochemical.
Data set [3] concerns the target Glutamate receptor ionotropic, NMDA 1 (Rattus norvegicus, UniProt P35439). The data set is described as follows: Inhibition of binding affinity of [3H]L-689,560 to the strychnine insensitive glycine site on rat brain membranes. The format is cell membranes, Membrane.
The species entered for the next data set is Rattus norvegicus. The data set is described as follows: Inhibition of N-Methyl-D-aspartate (NMDA)-induced depolarizations in rat cortical slices. It is filed as functional.

In general, inhibition refers to how much of the control response was suppressed. A low value points to a response near the control. In turn, `O=C1N/C(=C/C2CC2)C(O)=C1c1ccccc1` yielded an inhibition in data set [1] of 18%.

By pKa is commonly meant the negative logarithm of the acid dissociation constant. A low value points to a group that gives up its proton readily. Usually IC50 stands for the concentration at which inhibition is half-maximal. In the case of `CC/C=C1/NC(=O)C(c2ccccc2)=C1O`, in data set [2], the pKa turned out to be 4.6. Further, in data set [3], the IC50 is 45.5 µM. In the data set filed under Rattus norvegicus, this compound returned a Kb of 115 µM.

With `O=c1cc(O)c2ccc(Cl)cc2[nH]1`, the pKa in data set [2] was found to be 5.8.

Regarding `O=C1C=C(O)CN1`, in data set [2], the pKa stood at 6.4.

In data set [3], `O=C1N/C(=C\C2CC2)C(O)=C1c1ccccc1` registered an IC50 of 9.5 µM.

As to `C=C(C)COc1cccc(C2=C(O)/C(=C\CC)NC2=O)c1`, the IC50 in data set [3] was 3 µM. For the same compound, in the data set listed under Rattus norvegicus, the Kb stood at 15.8 µM.

In turn, `CC/C=C1/NC(=O)C(c2cccc(Oc3ccccc3)c2)=C1O` yielded an IC50 in data set [3] of 0.7 µM. In the data set listed under Rattus norvegicus, this compound came in with a Kb of 6.15 µM.

Consider `CCC/C=C1\NC(=O)C(c2ccccc2)=C1O`, for which the IC50 in data set [3] was 15.7 µM. The same compound had a Kb in the data set listed under Rattus norvegicus of 154 µM.

For the compound `O=C1N/C(=C\c2ccccc2)C(O)=C1c1ccccc1`, the half-maximal inhibitory concentration (IC50) in data set [3] was 24.2 µM.
